From US9121859B2, “Compounds and methods for determination of FKBP-binding immunosuppressant drugs” (Siemens Healthcare Diagnostics Inc., priority 2012, dated 2015)

Tests used:
[1] = test system: monoclonal anti-sirolimus antibody (clone 155-M1); experiment: Calculated cross-reactivity of releasing agent with antibody of the sirolimus ACMIA assay; format: binding; conditions: for Calculated antibody cross-reactivity (percent (%) times 100): sirolimus assay, measured at calibrator of 0 ng/mL, measured value/46.7 μg/mL analog; for Cross-reactivity with the sirolimus assay antibody: result in words
Protocol: (§1) Preparation of anti-sirolimus antibody-β-galactosidase conjugate. Monoclonal anti-sirolimus antibody (clone 155-M1 from Wyeth Pharmaceutical) was conjugated to β-galactosidase using a standard heterobifunctional SMCC (succinimidyl trans-4-(N-maleimidylmethyl)cyclohexane-1-carboxylate) linker according to known techniques. The antibody conjugate solution contained approximately 7.5 μg/mL anti-sirolimus antibody-β-galactosidase conjugate, 30 mg/mL protease free bovine serum albumin, 0.126 mg/mL MgCl2, 0.03 mL/mL of ethylene glycol, 35.14 mg/mL PIPES 1.5 sodium salt, 50 mg/mL NaCl and beta-gal mutein (inactivated β-galactosidase), pH 6.5.
(§2) Anti-sirolimus antibody-β-galactosidase conjugate (50 μL) was added next to each of the reaction vessels and the mixture was held for a period of time (10 to 15 minutes) and at a temperature of 43° C. to allow sirolimus, if present, to react with the antibody reagent. Chrome particles with immobilized sirolimus-biotin conjugate to streptavidin-coated chrome particle were added (50 μL) to each of the reaction vessels and were allowed to bind un-bound conjugate. […] The sirolimus-bound conjugate was detected by transferring the supernatant from each of the reaction vessels to a photometric cuvette and measuring the enzymatic rate of the conjugate in the presence of chlorophenol red-β-D-galactopyranoside (CPRG). The rate for each reaction vessel was measured bichromatically at 577 and 700 nm. The results are summarized in Table 1 under the categories: instrument signal observed for calibrators, drug concentration measured in ng/mL, percent (%) displaced vs. SIRO and calculated antibody cross-reactivity (percent (%) times 100). Cross-reactivity was based on the following: • 1) 70 μL of pretreatment reagent solution was added to the reaction medium versus 15 μL of sample, total reaction mixture volume=305 μL. • 2) 10 μg/mL of SIRO analog was in the pretreatment reagent solution. • 3) 10 μg/mL of SIRO analog from pretreatment reagent is equivalent to 46.7 μg/mL of SIRO analog added from sample (Calculation: 70 μL×10 μg/mL/15 μL=46.7 μg/mL) • 4) Measured sirolimus value at 0 ng/mL calibrator. • 5) Measure value/46.7 is % cross-reactivity.

[2] = test system: endogenous specific binding proteins (FKBP) in whole blood; experiment: ACMIA assay for sirolimus: release of sirolimus from endogenous binding substances in spiked whole blood by releasing agent; conditions: for Drug concentration measured / Percent (%) displaced vs. SIRO: releasing agent 10 μg/mL
Protocol: (§3) Testing was carried out using the DIMENSION® RxL analyzer, available from Siemens Healthcare Diagnostics Inc., Newark Del. The instrument was employed using ACMIA immunoassay technology. The ACMIA assay method is described in U.S. Pat. Nos. 7,842,475, 7,186,518, 5,147,529, 5,128,103, 5,158,871, 4,661,408, 5,151,348, 5,302,532, 5,422,284, 5,447,870, and 5,434,051, the disclosures of which are incorporated herein in their entirety. In the embodiment of the ACMIA method used herein and discussed in more detail below, competition between tacrolimus analog on chrome particles and tacrolimus in patient samples for antibody for tacrolimus conjugated to an enzyme (the “conjugate”) is utilized to determine the amount of tacrolimus in patient samples. Conjugate that binds to the tacrolimus analog on chrome particles is removed by magnetic separation. The enzymatic activity from the conjugate remaining in the supernatant is measured and is directly proportional to the amount of tacrolimus in the patient sample. […] The enzymatic activity observed when no chrome particle is present is indicative of the total amount of enzymatic activity in the conjugate.
(§4) Preparation of pretreatment reagent solution. This pretreatment solution was prepared to contain an amount of releasing agent, 6.8 mg/mL PIPES 1.5 sodium salt (buffer), 0.3 mg/mL EDTA disodium (clot prevention agent), 1.0 mg/mL saponin (hemolytic agent), 0.2% PROCLIN® 300 (preservative), 0.024 mg/mL neomycin sulfate (preservative) and 0.99 mg/mL NaN3, pH 6.5. The amount of releasing agent in each of the pretreatment reagent solutions was 10 μg/mL. The releasing agent concentration in the final reaction mixture was equivalent to 46.7 μg/mL of the analog added from the sample.
Preparation of anti-sirolimus antibody-β-galactosidase conjugate. […] The antibody conjugate solution contained approximately 7.5 μg/mL anti-sirolimus antibody-β-galactosidase conjugate, 30 mg/mL protease free bovine serum albumin, 0.126 mg/mL MgCl2, 0.03 mL/mL of ethylene glycol, 35.14 mg/mL PIPES 1.5 sodium salt, 50 mg/mL NaCl and beta-gal mutein (inactivated β-galactosidase), pH 6.5.
Magnetic chrome particle preparation. Sirolimus chrome particles (immunoassay solid phase) were prepared by conjugating sirolimus-biotin conjugate to streptavidin-coated chrome particle (prepared in a manner similar to that described in U.S. Pat. No. 7,842,475). The chrome particle reagent contained approximately 2.5 mg/mL sirolimus chrome particle slurry, 60.8 mg/mL trehalose dihydrate and 7.2 mg/mL CARBOWAX®.
(§5) Preparation of samples. Aliquots of a whole blood pool are spiked with an amount of sirolimus so that the resulting concentration of sirolimus in the whole blood samples in the calibrators is as set forth in Table 1 (0.0, 5.1, 10.1, 20.6 and 31.6 ng/mL). Aliquots of a whole blood pool are spiked with an amount of tacrolimus so that the resulting concentration of […] (0.0, 2.6, 5.3, 11.6 and 30.1 ng/mL).
(§6) Pretreatment of samples. A set of samples was treated as follows: To each sample was added an amount of the pretreatment reagent solution from above for displacing sirolimus in the sample from endogenous specific binding proteins. The samples were incubated at 37° C. for a period of 140 minutes. Subsequently, each sample was subjected to the aforementioned assay, which is further described below; and signal (mAU) was measured and related to a concentration of analyte that represents the amount of free analyte (analyte that is not bound by endogeneous binding substances plus analyte that was displaced from endogeneous binding substances) in the samples.
Assay. The ACMIA assay for sirolimus was carried out as follows: 15 μL of a whole blood sample from above was mixed with the pretreatment reagent solution from above (Displacer) (Table 1) in a vessel on the DIMENSION® RxL analyzer.

[3] = test system: endogenous specific binding proteins (FKBP) in whole blood; experiment: ACMIA assay for tacrolimus: release of tacrolimus from endogenous binding substances in spiked whole blood by releasing agent; conditions: for Drug concentration measured / Percent (%) displaced vs. SIRO: releasing agent 10 μg/mL
Protocol: as §3, §4
as §1, with “anti-tacrolimus” for “anti-sirolimus”, “1H6, see for example U.S. Pat. No. 7,078,495) is” for “155-M1 from Wyeth Pharmaceutical) was”, “contains” for “contained”
The chrome particle reagent contained approximately 2.5 mg/mL tacrolimus chrome particle slurry, 60.8 mg/mL trehalose dihydrate and 7.2 mg/mL CARBOWAX®.
as §5, §6
The above format for releasing an analyte (using the concentration of releasing agent (Displacer) shown) and conducting an assay for the analyte was repeated for samples containing tacrolimus.

[4] = test system: monoclonal anti-tacrolimus antibody (clone 1H6); experiment: Calculated cross-reactivity of releasing agent with antibody of the tacrolimus ACMIA assay; format: binding; conditions: measured at calibrator of 0 ng/mL
Protocol: as §1, with “anti-tacrolimus” for “anti-sirolimus”, “1H6, see for example U.S. Pat. No. 7,078,495) is” for “155-M1 from Wyeth Pharmaceutical) was”, “contains” for “contained”
as §2, with “reagent.” for “reagent. Chrome particles with immobilized sirolimus-biotin conjugate to streptavidin-coated chrome particle were added (50 μL) to each of the reaction vessels and were allowed to bind un-bound conjugate.”, “cross-reactivity. […]” for “cross-reactivity.”

[5] = sirolimus assay, result in words
[6] = sirolimus calibrator 10.1 ng/mL
[7] = sirolimus calibrator 20.6 ng/mL
[8] = sirolimus calibrator 31.6 ng/mL
[9] = tacrolimus assay, result in words
[10] = tacrolimus calibrator 0.0 ng/mL
[11] = tacrolimus calibrator 2.6 ng/mL
[12] = tacrolimus calibrator 5.3 ng/mL
[13] = tacrolimus calibrator 11.6 ng/mL
[14] = tacrolimus calibrator 30.1 ng/mL

## C=CC[C@@H]1/C=C(\C)C[C@H](C)C[C@H](OC)[C@H]2O[C@@](O)(C(=O)C(=O)N3CCCC[C@H]3C(=O)O[C@H](/C(C)=C/[C@@H]3CC[C@@H](O)[C@H](OC)C3)[C@H](C)[C@@H](O)CC1=O)[C@H](C)C[C@@H]2OC [Tacro, tacrolimus]
[1]
  Calculated antibody cross-reactivity (percent (%) times 100): 0.00 % × 100
[2]; [5]
  Displacement efficiency compared with mixture of V and VI: lower displacement efficiency
[2]; sirolimus calibrator 0.0 ng/mL
  Drug concentration measured: -0.1 ng/mL
[2]; sirolimus calibrator 5.1 ng/mL
  Drug concentration measured: 2.6 ng/mL
  Percent (%) displaced vs. SIRO: 52%
[2]; [6]
  Drug concentration measured: 4.1 ng/mL
  Percent (%) displaced vs. SIRO: 40%
[2]; [7]
  Drug concentration measured: 7.7 ng/mL
  Percent (%) displaced vs. SIRO: 38%
[2]; [8]
  Drug concentration measured: 13.0 ng/mL
  Percent (%) displaced vs. SIRO: 41%

## CO[C@H]1C[C@@H]2CC[C@@H](C)[C@@](O)(O2)C(=O)C(=O)N2CCCC[C@H]2C(=O)O[C@H]([C@H](C)C[C@@H]2CC[C@@H](O)[C@H](OC)C2)CC(=O)[C@H](C)/C=C(\C)[C@@H](O)[C@@H](OC)C(=O)[C@H](C)C[C@H](C)CCCCCC1C (stereo partly shown) [XI, hydrogenated sirolimus]
[1]
  Cross-reactivity with the sirolimus assay antibody: higher cross-reactivity
  Calculated antibody cross-reactivity (percent (%) times 100): 15.56 % × 100
[3]; [9]
  Displacement efficiency compared with mixture of V and VI: lower displacement efficiency
[3]; [10]
  Drug concentration measured: 0.3 ng/mL
[3]; [11]
  Drug concentration measured: 1.8 ng/mL
  Percent (%) displaced vs. SIRO: 68%
[3]; [12]
  Drug concentration measured: 2.9 ng/mL
  Percent (%) displaced vs. SIRO: 54%
[3]; [13]
  Drug concentration measured: 5.6 ng/mL
  Percent (%) displaced vs. SIRO: 48%
[3]; [14]
  Drug concentration measured: 16.0 ng/mL
  Percent (%) displaced vs. SIRO: 53%
[4]
  Calculated antibody cross-reactivity (percent (%) times 100): 0.06 % × 100
[2]; [5]
  Displacement efficiency compared with mixture of V and VI: lower displacement efficiency
[2]; sirolimus calibrator 0.0 ng/mL
  Drug concentration measured: 72.7 ng/mL
[2]; sirolimus calibrator 5.1 ng/mL
  Drug concentration measured: 82.5 ng/mL
  Percent (%) displaced vs. SIRO: 1622%
[2]; [6]
  Drug concentration measured: 96.4 ng/mL
  Percent (%) displaced vs. SIRO: 951%
[2]; [7]
  Drug concentration measured: 94.0 ng/mL
  Percent (%) displaced vs. SIRO: 458%
[2]; [8]
  Drug concentration measured: 85.2 ng/mL
  Percent (%) displaced vs. SIRO: 269%

## Diels-Alder adducts of 4-phenyl-1,2,4-triazoline-3,5-dione (PTAD) and sirolimus [Mixture V + VI]
[1]
  Calculated antibody cross-reactivity (percent (%) times 100): 0.29 % × 100
[3]; [9]
  Suitability as releasing agent for tacrolimus analyte: suitable as a releasing agents
[3]; [10]
  Drug concentration measured: 0.6 ng/mL
[3]; [11]
  Drug concentration measured: 2.9 ng/mL
  Percent (%) displaced vs. SIRO: 111%
[3]; [12]
  Drug concentration measured: 4.7 ng/mL
  Percent (%) displaced vs. SIRO: 89%
[3]; [13]
  Drug concentration measured: 9.5 ng/mL
  Percent (%) displaced vs. SIRO: 82%
[3]; [14]
  Drug concentration measured: 23.5 ng/mL
  Percent (%) displaced vs. SIRO: 78%
[4]
  Calculated antibody cross-reactivity (percent (%) times 100): 0.13 % × 100
[2]; [5]
  Suitability as releasing agent for sirolimus analyte: suitable as a releasing agents
[2]; sirolimus calibrator 0.0 ng/mL
  Drug concentration measured: 1.4 ng/mL
[2]; sirolimus calibrator 5.1 ng/mL
  Drug concentration measured: 5.8 ng/mL
  Percent (%) displaced vs. SIRO: 114%
[2]; [6]
  Drug concentration measured: 9.7 ng/mL
  Percent (%) displaced vs. SIRO: 96%
[2]; [7]
  Drug concentration measured: 16.8 ng/mL
  Percent (%) displaced vs. SIRO: 82%
[2]; [8]
  Drug concentration measured: 27.5 ng/mL
  Percent (%) displaced vs. SIRO: 87%

## Diels-Alder adducts of diethyl azidodicarboxylate (DAC) and sirolimus [Mixture IX + X]
[1]
  Cross-reactivity with the sirolimus assay antibody: higher cross-reactivity
  Calculated antibody cross-reactivity (percent (%) times 100): 14.82 % × 100
[3]; [9]
  Displacement efficiency compared with mixture of V and VI: lower displacement efficiency
[3]; [10]
  Drug concentration measured: 0.0 ng/mL
[3]; [11]
  Drug concentration measured: 2.4 ng/mL
  Percent (%) displaced vs. SIRO: 90%
[3]; [12]
  Drug concentration measured: 4.1 ng/mL
  Percent (%) displaced vs. SIRO: 78%
[3]; [13]
  Drug concentration measured: 9.2 ng/mL
  Percent (%) displaced vs. SIRO: 79%
[3]; [14]
  Drug concentration measured: 22.6 ng/mL
  Percent (%) displaced vs. SIRO: 75%
[4]
  Calculated antibody cross-reactivity (percent (%) times 100): 0.01 % × 100
[2]; [5]
  Displacement efficiency compared with mixture of V and VI: lower displacement efficiency
[2]; sirolimus calibrator 0.0 ng/mL
  Drug concentration measured: 69.2 ng/mL
[2]; sirolimus calibrator 5.1 ng/mL
  Drug concentration measured: 93.8 ng/mL
  Percent (%) displaced vs. SIRO: 1844%
[2]; [6]
  Drug concentration measured: 100.7 ng/mL
  Percent (%) displaced vs. SIRO: 994%
[2]; [7]
  Drug concentration measured: 119.9 ng/mL
  Percent (%) displaced vs. SIRO: 584%
[2]; [8]
  Drug concentration measured: 113.0 ng/mL
  Percent (%) displaced vs. SIRO: 357%
